Test results reported in patent US8952024B2, “Herbicidal pyrimidone derivatives” (E I du Pont de Nemours and Company, priority 2009, dated 2015).

Assays:
Experiment in all cases: Test D pre-/postemergence plant response
Type in all cases: in vivo
[1] = tested on: Italian ryegrass (Lolium multiflorum)
How it was run: (§1)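 Each species was planted in mixed loam and sand, treated either before emergence or at the 1- to 4-leaf stage, then kept under glass for 14 to 21 days. Plant response was scored by eye from 0 to 100 relative to controls; a dash marks no result.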

[2] = tested on: barnyardgrass (Echinochloa crus-galli)
How it was run: as §1

[3] = tested on: bermudagrass (Cynodon dactylon)
How it was run: as §1

[4] = tested on: field bindweed (Convolvulus arvensis)
How it was run: as §1

[5] = tested on: green foxtail (Setaria viridis)
How it was run: as §1

[6] = tested on: groundsel (common groundsel, Senecio vulgaris); settings: Postemergence
How it was run: as §1

[7] = tested on: guineagrass (Panicum maximum)
How it was run: as §1

[8] = tested on: itchgrass (Rottboellia cochinchinensis)
How it was run: as §1

[9] = tested on: johnsongrass (Sorghum halepense)
How it was run: as §1

[10] = tested on: mallow (common mallow, Malva sylvestris)
How it was run: as §1

[11] = tested on: naked crabgrass (Digitaria nuda)
How it was run: as §1

[12] = tested on: nutsedge (purple nutsedge, Cyperus rotundus)
How it was run: as §1

[13] = tested on: prickly sida (Sida spinosa)
How it was run: as §1

[14] = tested on: sowthistle (common sowthistle, Sonchus oleraceous)
How it was run: as §1

[15] = tested on: spanishneedles (Bidens bipinnata)
How it was run: as §1

[16] = Postemergence, 16 g ai/ha, scale 0 to 100
[17] = Postemergence, 31 g ai/ha, scale 0 to 100
[18] = Postemergence, 125 g ai/ha, scale 0 to 100 (0 no effect, 100 complete control)
[19] = Postemergence, 62 g ai/ha, scale 0 to 100 (0 no effect, 100 complete control)
[20] = Preemergence, 16 g ai/ha, scale 0 to 100, 0 no effect, 100 complete control
[21] = Preemergence, 31 g ai/ha, scale 0 to 100 (0 no effect, 100 complete control)
[22] = Preemergence, 125 g ai/ha, scale 0 to 100
[23] = Postemergence, 31 g ai/ha, scale 0 to 100 (0 no effect, 100 complete control)
[24] = Preemergence, 62 g ai/ha, scale 0 to 100

O=C1CCCC(O)=C1C(=O)c1cnc(C2CC2)n(-c2ccccc2)c1=O [Compound 87]
65: Plant response rating, Bermudagrass [3, 16] | Plant response rating, Bermudagrass [3, 23] | Plant response rating, Bermudagrass [3, 20] | Plant response rating, Bermudagrass [3, 21] | Plant response rating, Spanishneedles [15, 21]
35: Plant response rating, Barnyardgrass [2, 16] | Plant response rating, Foxtail, Green [5, 19]
70: Plant response rating, Barnyardgrass [2, 18] | Plant response rating, Bermudagrass [3, 19] | Plant response rating, Field Bindweed [4, 22] | Plant response rating, Johnsongrass [9, 22] | Plant response rating, Mallow [10, 18] | Plant response rating, Mallow [10, 19] | Plant response rating, Crabgrass, Naked [11, 19] | Plant response rating, Prickly Sida [13, 16] | Plant response rating, Spanishneedles [15, 18]
85: Plant response rating, Bermudagrass [3, 18]
30: Plant response rating, Ryegrass, Italian [1, 22] | Plant response rating, Foxtail, Green [5, 17] | Plant response rating, Guineagrass [7, 18] | Plant response rating, Itchgrass [8, 18] | Plant response rating, Itchgrass [8, 19] | Plant response rating, Johnsongrass [9, 17]
98: Plant response rating, Bermudagrass [3, 24] | Plant response rating, Bermudagrass [3, 22] | Plant response rating, Groundsel ([6]; 16 g ai/ha, scale 0 to 100) | Plant response rating, Groundsel ([6]; 31 g ai/ha, scale 0 to 100) | Plant response rating, Sowthistle [14, 17] | Plant response rating, Sowthistle [14, 19] | Plant response rating, Sowthistle [14, 20] | Plant response rating, Spanishneedles [15, 22]
0: Plant response rating, Ryegrass, Italian [1, 16] | Plant response rating, Ryegrass, Italian [1, 17] | Plant response rating, Ryegrass, Italian [1, 19] | Plant response rating, Ryegrass, Italian [1, 20] | Plant response rating, Ryegrass, Italian [1, 21] | Plant response rating, Barnyardgrass [2, 20] | Plant response rating, Field Bindweed [4, 16] | Plant response rating, Field Bindweed [4, 20] | Plant response rating, Field Bindweed [4, 21] | Plant response rating, Foxtail, Green [5, 20] | Plant response rating, Foxtail, Green [5, 21] | Plant response rating, Foxtail, Green [5, 24] | Plant response rating, Guineagrass [7, 20] | Plant response rating, Guineagrass [7, 21] | Plant response rating, Itchgrass [8, 16] | Plant response rating, Itchgrass [8, 17] | Plant response rating, Itchgrass [8, 20] | Plant response rating, Johnsongrass [9, 20] | Plant response rating, Nutsedge, Purple [12, 16] | Plant response rating, Nutsedge, Purple [12, 20] | Plant response rating, Spanishneedles [15, 20]
20: Plant response rating, Guineagrass [7, 17] | Plant response rating, Guineagrass [7, 19] | Plant response rating, Itchgrass [8, 21] | Plant response rating, Itchgrass [8, 24] | Plant response rating, Itchgrass [8, 22] | Plant response rating, Johnsongrass [9, 16] | Plant response rating, Johnsongrass [9, 24] | Plant response rating, Nutsedge, Purple [12, 19]
25: Plant response rating, Field Bindweed [4, 19]
10: Plant response rating, Foxtail, Green [5, 22] | Plant response rating, Guineagrass [7, 16] | Plant response rating, Nutsedge, Purple [12, 17]
90: Plant response rating, Sowthistle [14, 16]
5: Plant response rating, Ryegrass, Italian [1, 18] | Plant response rating, Barnyardgrass [2, 21] | Plant response rating, Foxtail, Green [5, 16] | Plant response rating, Johnsongrass [9, 21] | Plant response rating, Nutsedge, Purple [12, 21]
95: Plant response rating, Barnyardgrass [2, 22] | Plant response rating, Prickly Sida [13, 18]
75: Plant response rating, Guineagrass [7, 22] | Plant response rating, Crabgrass, Naked [11, 18] | Plant response rating, Nutsedge, Purple [12, 22]
50: Plant response rating, Barnyardgrass [2, 23] | Plant response rating, Barnyardgrass [2, 24] | Plant response rating, Guineagrass [7, 24] | Plant response rating, Crabgrass, Naked [11, 16] | Plant response rating, Nutsedge, Purple [12, 18] | Plant response rating, Nutsedge, Purple [12, 24] | Plant response rating, Prickly Sida [13, 20]
60: Plant response rating, Barnyardgrass [2, 19] | Plant response rating, Foxtail, Green [5, 18] | Plant response rating, Johnsongrass [9, 18] | Plant response rating, Mallow [10, 17] | Plant response rating, Crabgrass, Naked [11, 17] | Plant response rating, Prickly Sida [13, 21] | Plant response rating, Spanishneedles [15, 16] | Plant response rating, Spanishneedles [15, 17] | Plant response rating, Spanishneedles [15, 19]
80: Plant response rating, Mallow [10, 24] | Plant response rating, Crabgrass, Naked [11, 21] | Plant response rating, Prickly Sida [13, 17] | Plant response rating, Prickly Sida [13, 19]
15: Plant response rating, Field Bindweed [4, 17]
40: Plant response rating, Field Bindweed [4, 18] | Plant response rating, Field Bindweed [4, 24] | Plant response rating, Johnsongrass [9, 19] | Plant response rating, Mallow [10, 16]
100: Plant response rating, Groundsel ([6]; 125 g ai/ha, scale 0 to 100 (0 no effect, 100 complete control)) | Plant response rating, Groundsel ([6]; 62 g ai/ha, scale 0 to 100 (0 no effect, 100 complete control)) | Plant response rating, Mallow [10, 22] | Plant response rating, Crabgrass, Naked [11, 24] | Plant response rating, Crabgrass, Naked [11, 22] | Plant response rating, Prickly Sida [13, 24] | Plant response rating, Prickly Sida [13, 22] | Plant response rating, Sowthistle [14, 18] | Plant response rating, Sowthistle [14, 21] | Plant response rating, Sowthistle [14, 22]
